Assay [1] has as its system MDA-MB-231 cells. Kind of assay: Cell cycle analysis by PI flow cytometry. Type of assay: cell-based, human. The following applies: 24 h, vehicle 4.46%. As to the method: MDA-MB-231 cells were plated into 6-well plates at 2.5 × 10^5 cells/well. […] Next, the cells were trypsinized with 0.05% trypsin, 2.21 mM EDTA, 1×, washed, counted, and resuspended in 1 mL of ice-cold PBS. The cells then were stained with propidium iodide (PI) dye and incubated for at least 15 min. The distribution of the cells in each cell cycle phase for the different concentrations was measured using a BD Accuri™ C6 flow cytometer from BD Biosciences (Becton-Dickinson, San Jose, CA, USA) and analyzed using FCS Express 5 plus De Novo software (Glendale, CA, USA).
On the technique in general: Flow cytometry measures light scatter and fluorescence of single cells or particles in a stream.

The subject of assay [2] is MDA-MB-231 cells. Kind of assay: MitoTracker Red / Alexa Fluor 488 annexin V flow cytometry (mitochondrial membrane potential and apoptosis). Particulars: for Q2 % of cells (population of cells undergoing apoptosis, quadrant II): 24 h, MitoTracker Red / annexin V, 0 µM control 14.30% (4g), 14.78% (4i); for mitochondrial membrane potential (in words): incubation for 24 h. Type of assay: cell-based, human. On the procedure:
MitoTracker Red and Alexa Fluor 488 annexin V kits for flow cytometry (Molecular Probes Inc., Invitrogen, Eugene, OR) were used to measure the mitochondrial membrane potential and apoptosis in MDA-MB-231 cells. […] The cells were then […] using 0.05% trypsin, 2.21 mM EDTA, 1×, counted, and 4 μL of 10 μM of the MitoTracker Red working solution were added to 1 mL of the harvested cells. The cells were incubated at 37 °C with 5% CO2 for 30 min. The cells were washed once with PBS and resuspended in 100 μL of the annexin binding buffer. The cell suspensions were incubated with 5 μL of Alexa Fluor 488 annexin V for 15 min. This was followed by the addition of 400 μL of the annexin-binding buffer. Finally, flow cytometry was used to detect the fluorescence of stained cells at the following excitation/emission maxima: Alexa Fluor® 488 annexin V: 499/521 nm; MitoTracker® Red: 579/599 nm with the BD Accuri™ C6 flow cytometer from BD Biosciences (Becton-Dickinson, San Jose, CA, USA) and analyzed using FCS express 5 plus De Novo software (Glendale, CA, USA).

Another assay concerns BT-20, U-251, and HCT116. The assay is described as follows: MTT cytotoxicity assay, three cancer cell lines stated together. It counts as cell-based. The following applies: range across the three cancer cell lines, read-out: IC50 values, range over BT-20, U-251 and HCT116. As to the method:
A panel of cancer cell lines, including breast (MDA-MB-231, BT20), brain (U251), and colon (HCT116), as well as a normal cell line (human mammary epithelial cells: HMECs), were grown as adherent monolayers in flasks with Dulbecco’s Modified Eagle Medium (DMEM), supplemented with 10% fetal bovine serum (FBS) and 1% penicillin and streptomycin in a humidified incubator with 5% CO2 at 37 °C.
The (3-(4,5-dimethylthiazol-2-yl)-2,5-diphenyltetrazolium bromide) (MTT) assay was used to determine the cytotoxicity of the 15 chrysin derivatives in the above-mentioned cell lines. Briefly, cells were harvested with 0.05% trypsin, 2.21 mM ethylenediaminetetraacetic acid (EDTA), 1× from Corning (Corning, NY, USA), and suspended at a final density of 5 × 10^3 cells/well. Cells were seeded (180 μL/well) into 96-well plates. Initially, four different concentrations of each compound were added to find the compounds with the greatest antiproliferative efficacy in the MDA-MB-231 cell line (0, 1, 10, and 100 μM). […] The absorbance was determined at 590 nm using a DTX 880 multimode detector (Beckman Coulter life sciences, IN, USA). The IC50 ± SD concentrations were calculated from three experiments performed in triplicate/duplicate. The IC50 values were calculated from the cell survival percentages obtained for each compound tested at different concentrations. […]
On the technique in general: Tetrazolium dyes change colour on reduction, which living cells bring about.

From article PMC7412250, “Novel Chrysin-De-Allyl PAC-1 Hybrid Analogues as Anticancer Compounds: Design, Synthesis, and Biological Evaluation” (Molecules, 2020) come the findings set out here.

Take `O=C(COc1cc(O)c2c(=O)cc(-c3ccccc3)oc2c1)N/N=C/c1ccc(O)cc1O` [Compound 4g, (E,Z)-N’-(2,4-Dihydroxybenzylidene)-2-((5-hydroxy-4-oxo-2-phenyl-4H-chromen-7-yl)oxy)acetohydrazide]: the results for the “% of cells in G2 phase” value with MDA-MB-231 cells [1] (5 µM) and in the assay on MDA-MB-231 cells [1] (10 µM) were 59.12% and 54.13%, respectively. The figures for the “Q2 % of cells (population of cells undergoing apoptosis, quadrant II)” value in the assay on MDA-MB-231 cells [2] (5 µM) and in the assay on MDA-MB-231 cells [2] (10 µM) were 26.56% and 58.05%, respectively. In addition, the “mitochondrial membrane potential (in words)” value in the assay with MDA-MB-231 cells [2] is “significant loss of the mitochondrial membrane potential”.

Broadly, the IC50 is the concentration that inhibits the measured activity by half. Turning to `O=C(COc1cc(O)c2c(=O)cc(-c3ccccc3)oc2c1)N/N=C/c1ccc(O)c(O)c1O` [Compound 4i, (E,Z)-2-((5-Hydroxy-4-oxo-2-phenyl-4H-chromen-7-yl)oxy)-N’-(2,3,4-trihydroxybenzylidene)acetohydrazide], in the assay with BT-20, U-251, and HCT116, the IC50 was in the range of 10 to 25 µM. In addition, the “Q2 % of cells (population of cells undergoing apoptosis, quadrant II)” value with MDA-MB-231 cells [2] (5 µM) was 32.25%; in the assay with MDA-MB-231 cells [2] (10 µM), 42.56%. Moreover, the “mitochondrial membrane potential (in words)” value in the assay with MDA-MB-231 cells [2] is reported as “significant loss of the mitochondrial membrane potential”.
